Measurements reported in paper PMC4046888 (Cancer cell, 2011).
Read-outs that look alike come from different tables or passages of the source.

What was measured:
MV4-11 cells (MLL-AF4) = assay: Cell proliferation, viable cell count; type: cell-based, human
[1] = tested on: U937 cells (nonrearranged); assay: Cell proliferation, viable cell count; type: cell-based; conditions: Homo sapiens, U-937, 336 h, read-out: IC50 inhibition of cell proliferation
[2] = tested on: Kasumi-1 cells (nonrearranged); assay: Cell proliferation, viable cell count; type: cell-based; conditions: Homo sapiens, Kasumi 1, 336 h, read-out: IC50 inhibition of cell proliferation
MV4-11 cells = assay: Flow cytometry for DNA content and Annexin V; type: cell-based, human; conditions: 3 μM
[3] = tested on: hematopoietic progenitors transformed by coexpression of HoxA9 and Meis1a; assay: Proliferation of transformed hematopoietic progenitors; type: cell-based, murine; conditions: concentrations of up to 30 μM
[4] = tested on: H3K79me2 levels in MV4-11 cells; assay: Immunoblot of extracted histones for H3K79me2; type: cell-based, human
RS4;11 cells (MLL-AF4) = assay: Cell proliferation, viable cell count; type: cell-based; conditions: Homo sapiens, RS4-11, 336 h, read-out: IC50 inhibition of cell proliferation
[5] = tested on: Jurkat cells (nonrearranged); assay: Cell proliferation, viable cell count; type: cell-based, human
PRMT1 = PRMT1 (Homo sapiens, UniProt Q99873); assay: Histone methyltransferase panel IC50, balanced conditions
[6] = tested on: HOXA9 and MEIS1 transcript levels in MV4-11 cells; assay: Quantitative real-time PCR, concentration response; conditions: Homo sapiens, MV4-11, 144 h
SETD7 = SETD7 (Homo sapiens, UniProt Q8WTS6); assay: Histone methyltransferase panel IC50, balanced conditions
[7] = tested on: histone methyl marks in MV4-11 cells; assay: Immunoblot with panel of methyl-lysine and methyl-arginine specific antibodies; type: cell-based, human; conditions: 10 μM
[8] = tested on: HOXA9 and MEIS1 transcript levels in MOLM-13 cells; assay: Quantitative real-time PCR, concentration response; conditions: Homo sapiens, MOLM-13, 144 h
[9] = tested on: H3K79me2 in MLL-AF9 transformed hematopoietic progenitors; assay: Immunoblot for H3K79me2 in transformed progenitors; type: cell-based, murine; conditions: 10 days
[10] = tested on: HOXA9, MEIS1 and TBP mRNA in MV4-11 and MOLM-13 cells; assay: Quantitative real-time PCR, time course at 3 μM; type: cell-based, human
[11] = tested on: 697 cells (nonrearranged); assay: Cell proliferation, viable cell count; type: cell-based; conditions: Homo sapiens, 336 h, read-out: IC50 inhibition of cell proliferation
KOPN-8 cells (MLL-ENL) = assay: Cell proliferation, viable cell count; type: cell-based; conditions: Homo sapiens, KOPN-8, 336 h, read-out: IC50 inhibition of cell proliferation
[12] = tested on: H3K79me2 levels in Jurkat cells; assay: Immunoblot of extracted histones for H3K79me2; type: cell-based, human; conditions: 4 days, increasing concentrations
EHMT2 = EHMT2 (Homo sapiens, UniProt Q96KQ7); assay: Histone methyltransferase panel IC50, balanced conditions
[13] = target: EZH2 (in the context of the PRC2 multiprotein complex) (Homo sapiens, UniProt Q15910); assay: as above
Solubility = type: physicochemical
[14] = target: EZH1 (in the context of the PRC2 multiprotein complex) (Homo sapiens, UniProt Q92800); assay: Histone methyltransferase panel IC50, balanced conditions
[15] = tested on: H3K79me2 in Hoxa9-Meis1a transformed hematopoietic progenitors; assay: Immunoblot for H3K79me2 in transformed progenitors; type: cell-based, murine; conditions: 10 days
normal C57BL/6 mice = assay: Hematologic analysis and tolerability in normal mice; type: in vivo, mouse; conditions: pump 150 mg/ml, 14 days
CARM1 = CARM1 (Homo sapiens, UniProt Q86X55); assay: Histone methyltransferase panel IC50, balanced conditions
WHSC1 = WHSC1 (Homo sapiens, UniProt O96028); assay: as above
[16] = tested on: REH cells (nonrearranged); assay: Cell proliferation, viable cell count; type: cell-based; conditions: Homo sapiens, 336 h, read-out: IC50 inhibition of cell proliferation
[17] = tested on: CD14 expression in MOLM-13 cells; assay: Flow cytometry for cell surface CD14; type: cell-based, human; conditions: 3 μM, 12 days
PRMT5 = PRMT5 (Homo sapiens, UniProt O14744); assay: Histone methyltransferase panel IC50, balanced conditions
SEM cells (MLL-AF4) = assay: Cell proliferation, viable cell count; type: cell-based; conditions: Homo sapiens, 336 h, read-out: IC50 inhibition of cell proliferation
[18] = tested on: MV4-11 cells injected into tail vein of NSG mice; assay: Disseminated MV4-11 leukemia model, survival; type: in vivo, mouse
PRMT8 = PRMT8 (Homo sapiens, UniProt Q9NR22); assay: Histone methyltransferase panel IC50, balanced conditions
[19] = tested on: HL-60 cells (nonrearranged); assay: Cell proliferation, viable cell count; type: cell-based; conditions: Homo sapiens, HL-60, 336 h, read-out: IC50 inhibition of cell proliferation
[20] = Plasma concentration by LC-MS/MS, mini-osmotic pump infusion; type: in vivo, mouse; conditions: for average steady-state plasma concentration: pilot PK
[21] = tested on: primary murine hematopoietic progenitors transformed by MLL-AF9; assay: Proliferation of transformed hematopoietic progenitors; type: cell-based; conditions: 10 days treatment, MTT at day 12
MOLM-13 cells (MLL-AF9) = assay: Cell proliferation, viable cell count; type: cell-based, human
[22] = tested on: H3K79me2 levels in MOLM-13 cells; assay: Immunoblot of extracted histones for H3K79me2; type: cell-based, human; conditions: 4 days, increasing concentrations
[23] = read-out: IC50 decrease of HOXA9 transcript
[24] = read-out: IC50 decrease of MEIS1 transcript

Sequence of PRMT5 (O14744 whole entry): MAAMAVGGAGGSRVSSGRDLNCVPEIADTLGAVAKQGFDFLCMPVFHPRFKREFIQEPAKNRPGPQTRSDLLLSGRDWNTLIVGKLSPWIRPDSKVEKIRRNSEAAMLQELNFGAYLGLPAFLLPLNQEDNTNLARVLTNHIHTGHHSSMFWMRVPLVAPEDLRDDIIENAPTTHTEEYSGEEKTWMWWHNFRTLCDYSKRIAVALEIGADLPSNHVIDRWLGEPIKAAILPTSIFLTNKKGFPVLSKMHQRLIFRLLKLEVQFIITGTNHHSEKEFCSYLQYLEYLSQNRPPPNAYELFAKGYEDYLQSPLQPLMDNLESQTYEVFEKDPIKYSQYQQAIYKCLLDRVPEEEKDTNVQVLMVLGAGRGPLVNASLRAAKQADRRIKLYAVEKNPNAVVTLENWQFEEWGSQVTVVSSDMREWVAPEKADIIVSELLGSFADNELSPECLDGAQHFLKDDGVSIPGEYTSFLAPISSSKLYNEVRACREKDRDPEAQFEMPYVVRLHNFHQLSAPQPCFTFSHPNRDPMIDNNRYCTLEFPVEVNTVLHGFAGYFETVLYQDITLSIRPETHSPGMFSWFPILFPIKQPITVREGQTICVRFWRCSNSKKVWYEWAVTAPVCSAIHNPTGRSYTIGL
Sequence of PRMT5 (Q9BQA1 whole entry partner): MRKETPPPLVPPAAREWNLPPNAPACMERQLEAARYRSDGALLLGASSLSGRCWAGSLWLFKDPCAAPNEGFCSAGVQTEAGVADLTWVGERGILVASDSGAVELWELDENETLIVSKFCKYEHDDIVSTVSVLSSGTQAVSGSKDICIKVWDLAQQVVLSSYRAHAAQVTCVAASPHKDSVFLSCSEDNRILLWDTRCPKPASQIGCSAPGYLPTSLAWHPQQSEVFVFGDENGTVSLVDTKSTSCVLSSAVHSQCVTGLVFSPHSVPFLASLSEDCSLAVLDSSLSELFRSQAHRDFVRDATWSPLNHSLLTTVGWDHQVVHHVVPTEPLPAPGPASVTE
Sequence of CARM1 (Q86X55 whole entry): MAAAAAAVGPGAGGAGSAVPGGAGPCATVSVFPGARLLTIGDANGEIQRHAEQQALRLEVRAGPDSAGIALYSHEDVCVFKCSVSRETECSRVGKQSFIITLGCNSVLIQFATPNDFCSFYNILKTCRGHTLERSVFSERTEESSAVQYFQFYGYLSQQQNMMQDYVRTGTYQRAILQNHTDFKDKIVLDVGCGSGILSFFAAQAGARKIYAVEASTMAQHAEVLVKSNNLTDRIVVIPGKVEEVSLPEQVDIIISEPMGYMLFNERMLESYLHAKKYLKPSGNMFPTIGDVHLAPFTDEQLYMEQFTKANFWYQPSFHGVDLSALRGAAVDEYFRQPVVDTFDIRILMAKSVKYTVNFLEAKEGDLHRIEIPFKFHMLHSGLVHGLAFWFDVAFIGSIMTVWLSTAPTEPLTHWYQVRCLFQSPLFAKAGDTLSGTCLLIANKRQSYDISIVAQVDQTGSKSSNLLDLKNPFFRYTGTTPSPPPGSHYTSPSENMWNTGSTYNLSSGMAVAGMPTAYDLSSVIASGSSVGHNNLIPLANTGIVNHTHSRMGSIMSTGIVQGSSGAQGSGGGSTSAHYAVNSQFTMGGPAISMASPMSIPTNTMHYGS
Sequence of PRMT8 (Q9NR22 whole entry): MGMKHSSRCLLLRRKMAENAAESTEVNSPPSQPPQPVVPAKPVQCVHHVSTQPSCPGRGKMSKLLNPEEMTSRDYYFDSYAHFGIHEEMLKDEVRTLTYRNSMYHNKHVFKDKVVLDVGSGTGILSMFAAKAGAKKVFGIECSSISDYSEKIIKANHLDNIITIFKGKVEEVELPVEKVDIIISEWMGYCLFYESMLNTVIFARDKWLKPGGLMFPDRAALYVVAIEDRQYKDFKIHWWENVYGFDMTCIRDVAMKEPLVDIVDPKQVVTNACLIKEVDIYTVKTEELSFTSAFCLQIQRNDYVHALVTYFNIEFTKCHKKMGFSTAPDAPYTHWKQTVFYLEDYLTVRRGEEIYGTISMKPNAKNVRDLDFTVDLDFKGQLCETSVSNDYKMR
Sequence of WHSC1 (O96028 whole entry): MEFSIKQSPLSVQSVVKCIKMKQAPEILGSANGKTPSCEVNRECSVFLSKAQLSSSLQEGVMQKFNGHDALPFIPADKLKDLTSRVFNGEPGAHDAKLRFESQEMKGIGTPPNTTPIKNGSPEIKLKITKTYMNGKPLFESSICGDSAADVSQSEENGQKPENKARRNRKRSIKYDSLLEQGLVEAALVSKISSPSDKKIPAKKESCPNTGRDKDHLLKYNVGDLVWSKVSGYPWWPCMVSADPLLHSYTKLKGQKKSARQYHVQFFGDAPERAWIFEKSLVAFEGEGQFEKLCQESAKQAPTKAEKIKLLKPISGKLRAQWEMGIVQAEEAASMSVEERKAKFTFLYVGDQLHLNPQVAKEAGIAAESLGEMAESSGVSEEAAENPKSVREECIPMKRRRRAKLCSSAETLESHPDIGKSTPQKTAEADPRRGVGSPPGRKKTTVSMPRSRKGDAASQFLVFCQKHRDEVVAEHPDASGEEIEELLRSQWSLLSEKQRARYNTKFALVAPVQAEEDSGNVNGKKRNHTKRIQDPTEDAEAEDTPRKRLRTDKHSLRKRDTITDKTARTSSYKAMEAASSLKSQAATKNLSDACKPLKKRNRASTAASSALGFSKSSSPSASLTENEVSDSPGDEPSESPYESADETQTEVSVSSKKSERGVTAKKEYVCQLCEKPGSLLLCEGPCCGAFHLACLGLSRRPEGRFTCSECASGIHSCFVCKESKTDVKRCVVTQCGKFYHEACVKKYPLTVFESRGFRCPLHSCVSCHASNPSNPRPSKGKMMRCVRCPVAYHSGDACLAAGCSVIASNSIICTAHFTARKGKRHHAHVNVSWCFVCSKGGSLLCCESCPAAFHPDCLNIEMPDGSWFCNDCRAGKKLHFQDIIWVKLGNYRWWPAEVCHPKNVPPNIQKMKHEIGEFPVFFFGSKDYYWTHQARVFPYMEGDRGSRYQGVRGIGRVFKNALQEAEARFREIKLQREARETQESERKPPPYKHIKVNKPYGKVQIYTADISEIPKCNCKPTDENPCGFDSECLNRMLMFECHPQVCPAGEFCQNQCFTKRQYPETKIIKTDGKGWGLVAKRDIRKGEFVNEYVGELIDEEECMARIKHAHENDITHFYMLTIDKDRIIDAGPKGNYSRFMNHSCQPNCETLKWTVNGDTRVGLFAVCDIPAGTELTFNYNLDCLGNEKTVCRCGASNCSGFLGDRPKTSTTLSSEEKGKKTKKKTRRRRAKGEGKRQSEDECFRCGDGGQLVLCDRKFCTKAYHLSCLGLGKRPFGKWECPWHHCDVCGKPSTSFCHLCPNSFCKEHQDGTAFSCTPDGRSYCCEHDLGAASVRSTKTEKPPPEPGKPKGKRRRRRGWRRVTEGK
Sequence of EHMT2 (Q96KQ7 whole entry): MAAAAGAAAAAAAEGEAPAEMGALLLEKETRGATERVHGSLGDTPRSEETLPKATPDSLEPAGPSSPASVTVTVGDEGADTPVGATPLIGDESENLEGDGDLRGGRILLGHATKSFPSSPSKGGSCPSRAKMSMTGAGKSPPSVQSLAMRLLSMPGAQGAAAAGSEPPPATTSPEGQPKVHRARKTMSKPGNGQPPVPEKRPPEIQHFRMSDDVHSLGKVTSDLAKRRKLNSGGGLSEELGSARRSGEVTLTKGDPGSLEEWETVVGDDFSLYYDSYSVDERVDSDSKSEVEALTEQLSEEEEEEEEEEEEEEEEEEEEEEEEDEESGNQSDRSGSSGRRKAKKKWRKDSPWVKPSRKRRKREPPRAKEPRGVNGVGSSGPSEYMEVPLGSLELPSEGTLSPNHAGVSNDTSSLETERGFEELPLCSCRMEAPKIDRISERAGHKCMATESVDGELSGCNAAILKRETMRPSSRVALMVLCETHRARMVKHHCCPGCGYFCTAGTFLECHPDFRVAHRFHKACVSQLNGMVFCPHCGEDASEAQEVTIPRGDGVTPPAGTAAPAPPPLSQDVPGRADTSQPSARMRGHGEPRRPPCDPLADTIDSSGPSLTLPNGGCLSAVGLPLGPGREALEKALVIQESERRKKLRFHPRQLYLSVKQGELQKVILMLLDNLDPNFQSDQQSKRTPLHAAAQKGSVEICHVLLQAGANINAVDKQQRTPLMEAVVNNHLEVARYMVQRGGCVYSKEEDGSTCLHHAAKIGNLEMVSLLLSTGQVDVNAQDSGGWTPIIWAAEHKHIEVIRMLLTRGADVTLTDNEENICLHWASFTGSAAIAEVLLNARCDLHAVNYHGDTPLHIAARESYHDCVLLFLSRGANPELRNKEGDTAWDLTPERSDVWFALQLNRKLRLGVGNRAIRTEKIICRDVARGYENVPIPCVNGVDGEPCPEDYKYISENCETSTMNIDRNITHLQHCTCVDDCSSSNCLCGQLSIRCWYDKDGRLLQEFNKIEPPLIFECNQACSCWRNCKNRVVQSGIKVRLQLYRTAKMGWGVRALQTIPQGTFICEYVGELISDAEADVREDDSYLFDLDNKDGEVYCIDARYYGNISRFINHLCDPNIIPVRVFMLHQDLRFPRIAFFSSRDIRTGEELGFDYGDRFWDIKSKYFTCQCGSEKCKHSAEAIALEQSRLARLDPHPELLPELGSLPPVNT
Sequence of SETD7 (Q8WTS6 whole entry): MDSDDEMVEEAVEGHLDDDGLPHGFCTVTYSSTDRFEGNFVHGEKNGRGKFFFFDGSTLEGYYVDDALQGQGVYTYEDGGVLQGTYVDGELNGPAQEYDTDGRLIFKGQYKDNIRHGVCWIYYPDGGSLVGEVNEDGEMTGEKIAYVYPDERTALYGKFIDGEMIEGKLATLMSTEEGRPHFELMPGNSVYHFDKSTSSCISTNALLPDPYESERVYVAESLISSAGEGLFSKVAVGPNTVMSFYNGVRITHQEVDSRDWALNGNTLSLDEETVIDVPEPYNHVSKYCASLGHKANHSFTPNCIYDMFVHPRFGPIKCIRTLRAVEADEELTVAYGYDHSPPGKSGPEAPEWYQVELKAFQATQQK

Structure (SMILES): CC(C)N(CCCNC(=O)Nc1ccc(C(C)(C)C)cc1)C[C@H]1O[C@@H](n2ccc3c(N)ncnc32)[C@H](O)[C@@H]1O [EPZ004777]
- number of viable cells (MV4-11 cells (MLL-AF4); 3 μM, extended treatment): dramatically reduced
- IC50 (MV4-11 cells (MLL-AF4); Homo sapiens, MV4-11, 336 h, read-out: IC50 inhibition of cell proliferation): 170 nM
- IC50 [1]: > 50 µM
- IC50 [2]: 33 µM
- G0/G1 phase cells (MV4-11 cells; 4 days): modest increase
- S-phase cells (MV4-11 cells; 4 days): decrease
- sub-G1 and Annexin-positive cells (MV4-11 cells; days 4 to 10): increase
- survival of transformed progenitors [3]: unaffected
- time to full depletion of H3K79me2 ([4]; 3 μM): 4 to 5 days
- global H3K79me2 levels ([4]; 4 days, increasing concentrations): concentration-dependent reduction
- IC50 (RS4;11 cells (MLL-AF4)): 6.47 µM
- growth of cells ([5]; 3 μM, extended treatment): unaffected
- IC50 ([5]; Homo sapiens, Jurkat, 336 h, read-out: IC50 inhibition of cell proliferation): > 50 µM
- IC50 (PRMT1): > 50 µM
- IC50 [6, 23]: ~700 nM
- IC50 [6, 24]: ~700 nM
- IC50 (SETD7): > 50 µM
- H3K79me1 levels [7]: reduced
- H4R3me2 (residue targeted by PRMT5) [7]: no changes
- methylation state of H3K9 and H3K4 (PRDM and SMYD family targets) [7]: did not change
- IC50 [8, 23]: ~700 nM
- IC50 [8, 24]: ~700 nM
- H3K79 methylation [9]: inhibited H3K79 methylation
- time to maximal reduction of HOXA9 and MEIS1 transcripts [10]: 6 to 8 days
- time to significant decrease of HOXA9 and MEIS1 transcripts [10]: ≤ 48 h
- transcript levels of housekeeping gene TBP ([10]; 8 days): unaffected
- IC50 [11]: 36.6 µM
- IC50 (KOPN-8 cells (MLL-ENL)): 620 nM
- global H3K79me2 levels [12]: concentration-dependent reduction
- IC50 (EHMT2): > 50 µM
- IC50 [13]: > 50 µM
- solubility (Solubility): ≤ 50 µM
- solubility (Solubility; 15% ethanol, 50% PEG300, 35% water): 150 mg/mL
- IC50 [14]: > 50 µM
- H3K79 methylation [15]: inhibited H3K79 methylation
- bone marrow cellularity (normal C57BL/6 mice): preserved
- colony forming potential of bone marrow progenitors (normal C57BL/6 mice): did not find any significant differences
- granulocyte/monocyte progenitors (GMP) (normal C57BL/6 mice): not significantly affected
- overt toxicity (normal C57BL/6 mice): no overt toxicity
- tolerability (normal C57BL/6 mice): well tolerated
- populations highly enriched for hematopoietic stem cells (normal C57BL/6 mice; versus control mice): did not reveal any difference
- committed progenitors (Lin-Sca-1-c-Kit+) (normal C57BL/6 mice; most apparent in CMP and MEP): statistically significant decrease
- total white blood cell count (normal C57BL/6 mice; neutrophils, monocytes, lymphocytes increased): statistically significant increase
- IC50 (CARM1): > 50 µM
- IC50 (WHSC1): > 50 µM
- IC50 [16]: 13.9 µM
- cell surface expression of CD14 [17]: induced
- IC50 (PRMT5; IC50, ± 95% confidence interval): 521 ± 137 nM
- IC50 (PRMT5; biochemical IC50, only HMT other than DOT1L below this bound): < 50000 nM
- IC50 (SEM cells (MLL-AF4)): 1720 nM
- pump implant site reaction ([18]; 100 and 150 mg/ml groups): Local irritation at the pump implant site
- body weight ([18]; NSG mice, 14 days): no significant weight loss
- tolerability ([18]; NSG mice, 14 days): well tolerated
- median survival ([18]; pumps 50, 100 or 150 mg/ml, 14 days exposure, log-rank test): dose-dependent and statistically significant increase
- IC50 (PRMT8): > 50 µM
- IC50 [19]: > 50 µM
- pharmacokinetic properties ([20]; precluded conventional dosing): poor
- average circulating plasma level ([20]; pump 50 mg/ml, s.c. MV4-11 xenograft mice): 0.55 ± 0.12 µM
- average steady-state plasma concentration ([20]; pump 100 mg/ml): 0.64 ± 0.48 µM
- average steady-state plasma concentration ([20]; pump 150 mg/ml): 0.84 ± 0.45 µM
- concentration strongly inhibiting proliferation [21]: ≥ 3 µM
- number of viable cells (MOLM-13 cells (MLL-AF9); 3 μM, extended treatment): dramatically reduced
- IC50 (MOLM-13 cells (MLL-AF9); Homo sapiens, 336 h, read-out: IC50 inhibition of cell proliferation): 720 nM
- global H3K79me2 levels [22]: concentration-dependent reduction
